# Measurements taken from ChEMBL document CHEMBL3045393, “Aryldiones incorporating a [1,4,5]oxadiazepane ring. Part I: Discovery of the novel cereal herbicide pinoxaden” (Bioorg Med Chem, 2009).
# Experiments:
# Setaria faberi [1] = assay: Post-emergence herbicidal activity against Setaria faberi (Giant Foxtail) at 30 g a.i./ha measured after 21 days in presence of 1% Merge adjuvant; format: functional
# Alopecurus myosuroides [2] = assay: Post-emergence herbicidal activity against Alopecurus myosuroides at 30 g a.i./ha measured after 21 days in presence of 1% Merge adjuvant; format: functional
# Lolium perenne [3] = assay: Post-emergence herbicidal activity against Lolium perenne (perennial ryegrass) at 30 g a.i./ha measured after 21 days in presence of 1% Merge adjuvant; format: functional
# Triticum aestivum [4] = assay: Phytotoxicity against Triticum aestivum (wheat) at 30 g a.i./ha applied post-emergence measured after 21 days in presence of 1% Merge adjuvant; format: organism-based; settings: in vivo, other, 504 h
# Avena fatua [5] = assay: Post-emergence herbicidal activity against Avena fatua at 30 g a.i./ha measured after 21 days in presence of 1% Merge adjuvant; format: functional
# Hordeum vulgare [6] = assay: Phytotoxicity against Hordeum vulgare (barley) at 30 g a.i./ha applied post-emergence measured after 21 days in presence of 1% Merge adjuvant; format: organism-based; settings: in vivo, other, 504 h
# Avena fatua [7] = assay: Post-emergence herbicidal activity against Avena fatua at 250 g a.i./ha measured after 21 days in presence of 1% Merge adjuvant; format: functional
# Alopecurus myosuroides [8] = assay: Post-emergence herbicidal activity against Alopecurus myosuroides at 250 g a.i./ha measured after 21 days in presence of 1% Merge adjuvant; format: functional
# Lolium perenne [9] = assay: Post-emergence herbicidal activity against Lolium perenne (perennial ryegrass) at 250 g a.i./ha measured after 21 days in presence of 1% Merge adjuvant; format: functional
# Hordeum vulgare [10] = assay: Phytotoxicity against Hordeum vulgare (barley) at 250 g a.i./ha applied post-emergence measured after 21 days in presence of 1% Merge adjuvant; format: organism-based; settings: in vivo, other, 504 h
# Setaria faberi [11] = assay: Post-emergence herbicidal activity against Setaria faberi (Giant Foxtail) at 250 g a.i./ha measured after 21 days in presence of 1% Merge adjuvant; format: functional
# Triticum aestivum [12] = assay: Phytotoxicity against Triticum aestivum (wheat) at 250 g a.i./ha applied post-emergence measured after 21 days in presence of 1% Merge adjuvant; format: organism-based; settings: in vivo, other, 504 h
# Lolium perenne [13] = assay: Post-emergence herbicidal activity against Lolium perenne (perennial ryegrass) at 2000 g a.i./ha after 21 days; format: functional
# Lolium perenne [14] = assay: Post-emergence herbicidal activity against Lolium perenne (perennial ryegrass) at 500 g a.i./ha after 21 days; format: functional
# Avena fatua [15] = assay: Post-emergence herbicidal activity against Avena fatua at 500 g a.i./ha after 21 days; format: functional
# Setaria faberi [16] = assay: Post-emergence herbicidal activity against Setaria faberi (Giant Foxtail) at 500 g a.i./ha after 21 days; format: functional
# Setaria faberi [17] = assay: Post-emergence herbicidal activity against Setaria faberi (Giant Foxtail) at 2000 g a.i./ha after 21 days; format: functional
# Avena fatua [18] = assay: Post-emergence herbicidal activity against Avena fatua at 2000 g a.i./ha after 21 days; format: functional
SMILES,Activity (Setaria faberi [1]),Activity (Alopecurus myosuroides [2]),Activity (Lolium perenne [3]),Activity (Triticum aestivum [4]),Activity (Avena fatua [5]),Activity (Hordeum vulgare [6]),Activity (Avena fatua [7]),Activity (Alopecurus myosuroides [8]),Activity (Lolium perenne [9]),Activity (Hordeum vulgare [10]),Activity (Setaria faberi [11]),Activity (Triticum aestivum [12]),Activity (Lolium perenne [13]),Activity (Lolium perenne [14]),Activity (Avena fatua [15]),Activity (Setaria faberi [16]),Activity (Setaria faberi [17]),Activity (Avena fatua [18])
CCc1cc(C)cc(CC)c1-c1c(OC(=O)N(CC)CC)n2n(c1=O)CCOCC2,0%,0%,0%,0%,0%,0%,–,–,–,–,–,–,–,–,–,–,–,–
Cc1cc(C)c(C2C(=O)N3CCOCN3C2=O)c(C)c1 (centres undefined),–,–,–,–,–,–,90%,40%,90%,0%,90%,20%,–,–,–,–,–,–
Cc1cc(C)c(C2C(=O)N3CCSCCN3C2=O)c(C)c1,–,–,–,–,–,–,–,–,–,–,–,–,90%,50%,60%,90%,100%,90%
CCc1cc(C)cc(CC)c1-c1c(OS(=O)(=O)N(C)C)n2n(c1=O)CCOCC2,20%,0%,50%,0%,10%,0%,–,–,–,–,–,–,–,–,–,–,–,–
Cc1cc(C)c(-c2c(OC(=O)C(C)(C)C)n3n(c2=O)CC[S+]([O-])CC3)c(C)c1 (centres undefined),–,–,–,–,–,–,–,–,–,–,–,–,50%,20%,20%,40%,80%,80%
Cc1cc(C)c(C2C(=O)N3CCOCCN3C2=O)c(C)c1,50%,10%,80%,0%,60%,0%,90%,80%,90%,20%,90%,50%,100%,90%,80%,80%,100%,100%
CCOc1c(-c2c(CC)cc(C)cc2CC)c(=O)n2n1CCOCC2,0%,0%,20%,0%,0%,0%,–,–,–,–,–,–,–,–,–,–,–,–
